Biological target: T1, human S1P1 receptor (Homo sapiens, UniProt P21453)
T1 construct: expressed in transfected cells; membranes used
Assay: GTP γ35S binding assay for S1P1 activity
Assay type: biochemical
Conditions: membranes of cells stably expressing the S1P1 receptor, agonist potency
Protocol: Compounds of the invention were tested for S1P1 activity using the GTP γ^35S binding assay. These compounds may be assessed for their ability to activate or block activation of the human S1P1 receptor in cells stably expressing the S1P1 receptor.
GTP γ^35S binding was measured in the medium containing (mM) HEPES 25, pH 7.4, MgCl2 10, NaCl 100, dithitothreitol 0.5, digitonin 0.003%, 0.2 nM GTP γ^35S, and 5 μg membrane protein in a volume of 150 μl. Test compounds were included in the concentration range from 0.08 to 5,000 nM unless indicated otherwise. Membranes were incubated with 100 μM 5′-adenylylimmidodiphosphate for 30 min, and subsequently with 10 μM GDP for 10 min on ice.
Drug solutions and membrane were mixed, and then reactions were initiated by adding GTP γ^35S and continued for 30 min at 25° C. Reaction mixtures were filtered over Whatman GF/B filters under vacuum, and washed three times with 3 mL of ice-cold buffer (HEPES 25, pH7.4, MgCl2 10 and NaCl 100). Filters were dried and mixed with scintillant, and counted for ^35S activity using a β-counter. Agonist-induced GTP γ^35S binding was obtained by subtracting that in the absence of agonist. Binding data were analyzed using a non-linear regression method. In case of antagonist assay, the reaction mixture contained 10 nM S1P in the presence of test antagonist at concentrations ranging from 0.08 to 5000 nM.

T1 sequence (P21453 whole entry): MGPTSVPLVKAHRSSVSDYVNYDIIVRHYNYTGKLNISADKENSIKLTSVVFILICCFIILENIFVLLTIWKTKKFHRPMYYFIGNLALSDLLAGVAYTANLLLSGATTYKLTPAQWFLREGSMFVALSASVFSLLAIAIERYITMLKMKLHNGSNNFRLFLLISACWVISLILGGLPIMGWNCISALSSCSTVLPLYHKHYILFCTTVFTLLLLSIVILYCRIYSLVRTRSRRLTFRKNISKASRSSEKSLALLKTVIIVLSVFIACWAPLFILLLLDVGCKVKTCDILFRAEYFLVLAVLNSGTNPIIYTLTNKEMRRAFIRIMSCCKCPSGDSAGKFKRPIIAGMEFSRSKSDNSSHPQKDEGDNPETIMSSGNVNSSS

SMILES | EC50
Cn1nc(-c2nc(-c3ccc(CNCCCP(=O)(O)O)cc3)no2)cc1-c1ccccc1 [Compound 1, [3-({4-[5-(1-Methyl-5-phenyl-1H-pyrazol-3-yl)-1,2,4-oxadiazol-3-yl]benzyl}amino)propyl]phosphonic acid] | 32 nM
Cn1nc(-c2nc(-c3ccc(CNCCC(=O)O)cc3)no2)cc1-c1ccccc1 [Compound 2, 3-({4-[5-(1-methyl-5-phenyl-1H-pyrazol-3-yl)-1,2,4-oxadiazol-3-yl]benzyl}amino)propanoic acid] | 658 nM

From patent publication US20140235588A1, “SUBSTITUTED 1H-PYRAZOL-1,2,4-OXADIAZOLE DERIVATIVES AS SPHINGOSINE RECEPTOR MODULATORS” (Allergan, Inc., priority 2013, published 2014)
